Molecules are shown by their SMILES.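 Compound exposure: 48 hours, 5 concentrations, 96-well plates. The concentration for full growth arrest is given as TGI.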

Some test systems named below: KM12 colon; HL-60(TB) leukemia; CCRF-CEM leukemia; NCI-H226 lung; OVCAR-8 ovarian; NCI-H460 lung; SNB-75 CNS; UO-31 renal; SK-MEL-28 melanoma; COLO 205 colon; SW-620 colon; IGROV1 ovarian; OVCAR-4 ovarian; MOLT-4 leukemia; CAKI-1 renal; A549 NSCLC; SK-MEL-2 melanoma; SNB-19 CNS; RPMI-8226 leukemia; OVCAR-3 ovarian.
Common to all, as to assay: growth of human tumour cells (NCI), 48 h

As for `CC(=O)NNc1nc(C)c(C(=O)NNC(=O)C(=O)Nc2c(C)cccc2C(C)(C)C)s1`, the TGI in the assay on KM12 colon was over 100 µM; in the assay on HL-60(TB) leukemia it was over 100 µM; with CCRF-CEM leukemia, 69.9 µM; with NCI-H226 lung, over 100 µM; in the assay on OVCAR-8 ovarian, over 100 µM; in the assay on NCI-H460 lung it was over 100 µM. Also, the TGI in the assay with SNB-75 CNS, with UO-31 renal, with SK-MEL-28 melanoma, in the assay on COLO 205 colon, in the assay with SW-620 colon and with IGROV1 ovarian was over 100 µM in each case. Further, the TGI with OVCAR-4 ovarian, in the assay on MOLT-4 leukemia, with CAKI-1 renal, in the assay with A549 NSCLC, in the assay with SK-MEL-2 melanoma and with SNB-19 CNS was over 100 µM throughout. The TGI in the assay on RPMI-8226 leukemia is over 100 µM.
For the compound `COC(=O)C1=C(C)N2CCOC2CC1c1ccccc1` (stereo not given), the TGI with OVCAR-3 ovarian, in the assay on KM12 colon, with HL-60(TB) leukemia, in the assay with CCRF-CEM leukemia, with NCI-H226 lung and in the assay with OVCAR-8 ovarian was over 100 µM throughout. The TGI in the assay with NCI-H460 lung, in the assay on SNB-75 CNS, with UO-31 renal, in the assay with SK-MEL-28 melanoma, in the assay on COLO 205 colon and in the assay with SW-620 colon was over 100 µM in each case. The TGI in the assay on IGROV1 ovarian, in the assay on OVCAR-4 ovarian, in the assay with MOLT-4 leukemia, in the assay with CAKI-1 renal, with A549 NSCLC and with SK-MEL-2 melanoma was over 100 µM throughout. Moreover, the TGI with SNB-19 CNS and in the assay with RPMI-8226 leukemia was over 100 µM throughout.
As for `C[N+](C)=c1nc(N2CCc3ccccc3C2)ss1`, the TGI in the assay on OVCAR-3 ovarian, in the assay with KM12 colon, in the assay with HL-60(TB) leukemia, with CCRF-CEM leukemia, with NCI-H226 lung and in the assay on OVCAR-8 ovarian was over 100 µM throughout. The TGI in the assay on NCI-H460 lung, in the assay with SNB-75 CNS, in the assay with UO-31 renal, in the assay with SK-MEL-28 melanoma, in the assay on COLO 205 colon and in the assay on SW-620 colon was over 100 µM throughout. The TGI with IGROV1 ovarian, in the assay on OVCAR-4 ovarian, with MOLT-4 leukemia, with CAKI-1 renal, in the assay with A549 NSCLC and in the assay on SK-MEL-2 melanoma was over 100 µM throughout. Moreover, the TGI with SNB-19 CNS and with RPMI-8226 leukemia was over 100 µM each time.
For `COc1cc(C(=O)Nc2cc(C(N)=O)cc(OC)c2OC)cc(NC(=O)/C=C/c2ccccc2)c1OC`, the TGI with OVCAR-3 ovarian, with KM12 colon, in the assay with HL-60(TB) leukemia, in the assay on CCRF-CEM leukemia, in the assay with OVCAR-8 ovarian and in the assay with NCI-H460 lung was over 100 µM throughout. The TGI with UO-31 renal, in the assay on SK-MEL-28 melanoma, in the assay on COLO 205 colon, with SW-620 colon, with IGROV1 ovarian and with OVCAR-4 ovarian was over 100 µM throughout. Further, the TGI in the assay on MOLT-4 leukemia, in the assay on A549 NSCLC, with SNB-19 CNS and with RPMI-8226 leukemia was over 100 µM in each case.
For the compound `CNCCC=C1c2ccccc2CCc2ccccc21`, the TGI in the assay with OVCAR-3 ovarian was 23.6 µM; in the assay with KM12 colon, 29.6 µM; in the assay with HL-60(TB) leukemia, 31.7 µM; in the assay with CCRF-CEM leukemia it was 29.3 µM; in the assay with NCI-H226 lung, 38 µM; in the assay with OVCAR-8 ovarian, 31.7 µM. The TGI in the assay with NCI-H460 lung stood at 28.5 µM; with SNB-75 CNS, 21.6 µM; with UO-31 renal, 18.2 µM; in the assay with SK-MEL-28 melanoma it was 27 µM; in the assay on COLO 205 colon, 21 µM; in the assay on SW-620 colon, 34.6 µM. The TGI turned out to be 30.7 µM with IGROV1 ovarian; 28.6 µM in the assay on OVCAR-4 ovarian; 29.4 µM with MOLT-4 leukemia; 27.7 µM in the assay on CAKI-1 renal; 32.1 µM with A549 NSCLC; 29.2 µM in the assay on SK-MEL-2 melanoma. The TGI stood at 31.6 µM with SNB-19 CNS and 32.8 µM in the assay on RPMI-8226 leukemia.
In the case of `CN(C)CCN(C(=Nc1ccccc1)N1CCCC1)c1ccccc1`, the TGI in the assay with OVCAR-3 ovarian, in the assay with KM12 colon, in the assay with HL-60(TB) leukemia, in the assay with CCRF-CEM leukemia, with NCI-H226 lung and in the assay on OVCAR-8 ovarian was over 100 µM in each case. The TGI in the assay with NCI-H460 lung, in the assay with SNB-75 CNS, in the assay on UO-31 renal, in the assay on SK-MEL-28 melanoma, in the assay on COLO 205 colon and in the assay on SW-620 colon was over 100 µM throughout. Further, the TGI in the assay on IGROV1 ovarian, with OVCAR-4 ovarian, with MOLT-4 leukemia, in the assay on CAKI-1 renal, in the assay on A549 NSCLC and in the assay on SK-MEL-2 melanoma was over 100 µM in each case. Further, the TGI in the assay on SNB-19 CNS was over 100 µM; in the assay on RPMI-8226 leukemia, 82.3 µM.
Regarding `C/C(=N\NC(=S)NCc1ccccc1)c1nc2ncccc2[nH]1`, the TGI with OVCAR-3 ovarian is 39.8 µM; with KM12 colon, 21.5 µM; in the assay on HL-60(TB) leukemia, over 100 µM; in the assay with CCRF-CEM leukemia, 19.2 µM; in the assay on NCI-H226 lung, 20.8 µM; with OVCAR-8 ovarian it was 26.8 µM. Further, the TGI in the assay with NCI-H460 lung was 27.6 µM; with SNB-75 CNS it was 49 µM; with UO-31 renal, 11 µM; in the assay with SK-MEL-28 melanoma, 37.4 µM; in the assay on COLO 205 colon, 34.4 µM; in the assay with SW-620 colon, over 100 µM. The TGI was 34.1 µM with IGROV1 ovarian; 83 µM in the assay on OVCAR-4 ovarian; 17.5 µM in the assay on MOLT-4 leukemia; 61.2 µM in the assay on CAKI-1 renal; over 100 µM in the assay with A549 NSCLC; 36 µM in the assay on SK-MEL-2 melanoma. In addition, the TGI amounted to 50.2 µM with SNB-19 CNS and 59.9 µM with RPMI-8226 leukemia.

The values are drawn from PubChem BioAssay (NCI).
